In patent EP2929785A1, “A PLA inhibitor for inhibition of fat absorption” (PAT GmbH, priority 2014, dated 2015):

Tested on: fatty acid uptake complex components
Experiment: Transcript levels of fatty acid uptake complex components by semi-quantitative RT-PCR in HepG2 cells
Type: cell-based, human
Conditions: after 1 h of treatment, UDCA-LPE 50 µM (Fig. 6)
From the text: The following forward and reverse primers (Sigma) were used for RT-PCR: iPLA2ß, [NT] (SEQ ID NO: 1) and [NT] (SEQ ID NO: 2); CD36, [NT] (SEQ ID NO: 3) and [NT] (SEQ ID NO: 4); […] (SEQ ID NO: 5) and [NT] (SEQ ID NO: 6); and caveolin-1, [NT] (SEQ ID NO: 7) and reverse [NT] (SEQ ID NO: 8). The primers for FATP4 and ß-actin (internal control) were the same as those previously used as described in […] et al. Am J Physiol Endocrinol Metab 2011; 301, 785-796.

Substance: ursodeoxycholatelysophosphatidylethanolamide [UDCA-LPE]
- transcript levels of all fatty acid uptake complex components: < 10 % of initial values
